Values of other authors as cited in paper PMC11369081, “Molecular mechanism of prolactin-releasing peptide recognition and signaling via its G protein-coupled receptor” (Cell Discovery, 2024).
Ends that are not written are not given here.

Tested on: PrRPR
Settings: cited from earlier work
Experimental: In both structures, the intramolecular motif of W8, Y9, and R12 within PrRP20 stabilizes its α-helical structure (Fig. 2h). […] Th ...

Substance | activity in vitro (structure-activity relationship studies, ref [21]) | affinity of shortest effective analog (deletion analysis of PrRP20 N-terminal region, vs PrRP20, ref [9])
PrRP20 analog (W8–F20): PrRP20 analog (W8–F20) (WYASRGIRPVGRF; ends and bridges not checked; UniProt P81277 41-53, looked up, fragment) | did not show reduced activity in vitro | –
C-terminal heptapeptide (I14–F20): shortest effective analog is a C-terminal heptapeptide (I14–F20) (IRPVGRF; ends and bridges not checked; UniProt P81277 47-53, looked up, fragment) | – | substantially lower affinity
